In PubChem BioAssay AID1996:
Values after ≈ are worked out from the molar mass of the structure shown.

Conditions: buffer; pH 7.4; 200.0 µM

| Structure (SMILES) | solubility kinetic [µg/mL] |
| --- | --- |
| O=C1/C(=C/c2cccnc2)N2CCC1CC2 | > 32.1 |
| COc1cccc2cc(C(=O)NCc3ccc(F)cc3)c(=N)oc12 | 1.7 (≈ 5.21 µM) |
| C/C(=N\OCC(=O)O)c1ccc(Cl)cc1 | > 34.1 |
| CC(C)CC(=O)c1c[nH]c(C(=O)NCc2ccccc2)c1 | 1.6 (≈ 5.63 µM) |
| CCC(=O)NCc1ccc2[nH]c(C)cc2c1 | 32.3 (≈ 149 µM) |
| c1cc2c(cc1NC1CCCCCC1)OCO2 | 5.9 (≈ 25.3 µM) |
| COC(=O)c1ccc(NC(=O)CCC(=O)c2ccc(F)cc2)cc1 | < 0.7 |
| Oc1c(C(c2ccccn2)N2CCOCC2)ccc2cccnc12 (centres undefined) | 1.7 (≈ 5.29 µM) |
| CCOc1ccc(C(=O)NNC(=O)CN2C(=O)C3CC=CCC3C2=O)cc1OC (centres undefined) | > 60.2 |
| O=[N+]([O-])c1cccc(-c2noc(COc3ccccc3)n2)c1 | 0.9 (≈ 3.03 µM) |
| O=C(Nc1ccc(C(=O)OC2CCCCC2)cc1)c1ccncc1 | 2.8 (≈ 8.63 µM) |
| COc1ccc(N2CCN(C(=O)NC(=O)c3ccc(Cl)cc3)CC2)cc1 | 3.1 (≈ 8.29 µM) |
| CCOC(=O)CN1C(=O)SC(Nc2ccc(C)cc2)C1=O (centres undefined) | > 46.3 |
| O=C(NCCNC(=O)c1ccccc1F)c1ccco1.O=C(O)C(=O)O | 51.5 |
| CSc1ncccc1C(=O)OCC(=O)N(C)C | > 38.1 |
| Cc1ccc(C(=O)OCC(=O)NCc2cccs2)s1 | > 44.3 |
| O=C(COC(=O)COc1ccccc1F)NC1CC1 | 37 (≈ 138 µM) |
| O=C(Nc1ccon1)c1ccc(S(=O)(=O)N2CCOCC2)cc1 | 47.4 (≈ 141 µM) |
| NC(=O)c1cccnc1Oc1ccccc1 | 28.8 (≈ 134 µM) |
| C=CCn1c(N2CCOCC2)nc2c1c(=O)[nH]c(=O)n2C | > 43.7 |

| Structure (SMILES) | solubility kinetic [µg/mL] |
| --- | --- |
| COc1ccc(C(=O)/C=C2/C(=O)Nc3ccccc32)c(OC)c1 | 12.7 (≈ 41.1 µM) |
| COc1ccc(-c2cc(C(=O)N3CCCCC3)c3ccccc3n2)cc1 | 33.5 (≈ 96.7 µM) |
| COc1ccc(C(=O)O)cc1S(=O)(=O)NC(C)(C)C | > 43.1 |
| Cc1c(C(=O)NC(=S)Nc2cccnc2)cccc1[N+](=O)[O-] | 0.9 (≈ 2.85 µM) |
| O=C(Cn1ncc2c([nH]c3ccccc32)c1=O)N1CCOCC1 | > 46.8 |
| COc1ccccc1-c1nc2ccccc2c(=O)n1O | > 40.2 |
| COc1ccc(S(=O)(=O)N2CCOCC2)cc1C(=O)N(C)Cc1ccco1 | > 59.2 |
| Cc1ccc(NC(=O)CCN2CCOCC2)cc1C | > 39.4 |
| CCOc1ncccc1C(=O)NCc1ccccc1F | > 41.1 |
| CCNc1nc(Cl)nc(NC2CCCCC2)n1 | 18.4 (≈ 71.9 µM) |
| CC(C)Oc1ccc(C(=O)NCCCNC(=O)c2ccccn2)cc1 | 48.6 (≈ 142 µM) |
| CCOc1ccc(/C=C(\C)C(=O)c2c(C)cc(C)[nH]c2=O)cc1 | 38.3 (≈ 123 µM) |
| NC(=O)COC(=O)c1cc([N+](=O)[O-])ccc1NCCO | > 42.5 |
| COc1ccc(NC(=O)c2oc3ccccc3c2C)cn1 | 4 (≈ 14.2 µM) |
| COc1ccc(C(=O)Nc2ccccc2C(=O)NCc2ccco2)cc1 | 2.1 (≈ 5.99 µM) |
| CSc1ncccc1C(=O)N1CCN(S(=O)(=O)c2ccc3c(c2)OCCO3)CC1 | > 65.3 |
| CCC(=O)NC(c1ccccc1)c1c(OC(C)=O)ccc2ccccc12 (centres undefined) | > 52.1 |
| Cc1cc(C(=O)Nc2ccncc2)c2ccccc2n1 | 26.3 (≈ 99.9 µM) |
| O=C1NC(=Nc2ccccc2)CS1 | > 28.8 |
| Cc1cccc(NC(=O)CSc2nc3ccccc3c(=O)n2C)c1 | 0.5 (≈ 1.47 µM) |

| Structure (SMILES) | solubility kinetic [µg/mL] |
| --- | --- |
| Cc1nc(-c2ccccn2)nc(N(C)c2ccccc2)c1Cl | 41.7 (≈ 134 µM) |
| Cn1c(SCc2ccccc2Cl)nc2c1c(=O)[nH]c(=O)n2C | 0.4 (≈ 1.19 µM) |
| CCC(=O)N1c2ccc(S(=O)(=O)N3CCCC3)cc2CC1C (centres undefined) | 33.5 (≈ 104 µM) |
| Cc1nc2ccccc2c(=O)n1NC(=O)c1ccccc1F | > 44.6 |
| O=C(NC(=S)NCc1ccccc1Cl)c1cccs1 | 3.2 (≈ 10.3 µM) |
| Cc1ccc(C(=O)NCC(=O)NC2CC2)cc1 | 33.4 (≈ 144 µM) |
| Br.COC(=O)c1ccc(CN2CCSC2=N)cc1 | 49.6 |
| CC(C)(C)Nc1c(-c2ccc(O)cc2)nc2ccc(Cl)cn12 | 0.4 (≈ 1.27 µM) |
| COc1ccc(CNC(=O)COC(=O)c2ccc(C)c(S(=O)(=O)N3CCOCC3)c2)cc1 | 7.8 (≈ 16.9 µM) |
| CC(C)COc1ccc(C(=O)N2C(=O)c3ccc(N)cc3C2=O)cc1 | 1.8 (≈ 5.32 µM) |
| Clc1ccccc1-c1csc(Nc2cccnc2)n1 | 0.3 (≈ 1.04 µM) |
| CCN(c1ccccc1)S(=O)(=O)c1ccc(Cl)c(NC(=O)CNCc2ccccc2OC)c1 | 3.7 (≈ 7.58 µM) |
| O=C1N/C(=N\c2ccccn2)SC1Cc1ccccc1Cl (centres undefined) | < 0.2 |
| O=C1CSC(c2cccnc2)N1Cc1cccnc1 (centres undefined) | 40.2 (≈ 148 µM) |
| CCOC(=O)N1CCC2(CC1)C(C#N)=C(N)OC1=C2C(=O)CCC1 | > 49.7 |
| CCCOC(=O)Nc1nc(-c2ccc(C)cc2)c(C)s1 | 1.3 (≈ 4.48 µM) |
| CCCCC1(c2ccc(F)cc2)NC(=O)N(CC(=O)Nc2ccc(N3CCOCC3)cc2)C1=O (centres undefined) | 55.7 (≈ 119 µM) |
| C=CCOC(=O)/C(=C/c1cccnc1)NC(=O)c1ccccc1 | 43.4 (≈ 141 µM) |
| C=CC[n+]1cccc(-c2cc3ccc(C)cc3[nH]2)c1.[Br-] | > 49.4 |
